Literature values in patent US20030181501A1 (priority 2001, published 2003).

Details: Dionne (1999)

For `Cc1onc(-c2ccccc2)c1-c1ccc(S(N)(=O)=O)cc1` [Valdecoxib, 4-(5-methyl-3-phenyl-4-isoxazolyl)benzenesulfonamide], which Solubility in water is on record?
Its Solubility in water is “extremely low solubility in water”.
